Laboratory results: patent US11117860B2, “Phenyl urea derivatives as n-formyl peptide receptor modulators” (Allergan, Inc., priority 2016, dated 2021)

Columns and labels:
FPR2 = target: T1, FPR2 (Homo sapiens, UniProt P25090); assay: compound-induced calcium activity on FLIPR Tetra, CHO-Gα16 cells stably expressing FPR2; format: cell-based; set-up: FPR2 Ga16-CHO (% eff): unit not given here; settings: for FPR2 Ga16-CHO (% eff): efficacy value in parentheses; for EC50: tested at 0.61 to 10,000 nM, read-out: FPR2 Ga16-CHO EC50
T1 construct: expressed in transfected cells
T1 sequence (P25090 1-351): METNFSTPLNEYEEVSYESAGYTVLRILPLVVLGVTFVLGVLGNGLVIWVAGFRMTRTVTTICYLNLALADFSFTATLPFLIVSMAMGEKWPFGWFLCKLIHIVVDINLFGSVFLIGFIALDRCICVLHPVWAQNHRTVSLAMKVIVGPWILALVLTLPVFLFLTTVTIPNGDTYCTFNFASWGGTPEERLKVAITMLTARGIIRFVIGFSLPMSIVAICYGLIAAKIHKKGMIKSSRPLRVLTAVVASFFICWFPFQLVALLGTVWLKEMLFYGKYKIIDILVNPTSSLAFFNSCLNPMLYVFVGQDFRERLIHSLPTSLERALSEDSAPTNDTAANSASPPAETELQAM
Description: (§1) CHO-Gα16 cells stably expressing FPR1 or FPR2 were cultured in (Ham's F12 nutrient media, 10% fetal bovine serum, 1% PSA (penicillin, streptomycin, amphotericin B antiobiotic/antimycotic), 400 μg/ml geneticin and 50 μg/ml hygromycin). In general, the day before the experiment, 18,000 cells/well were plated in a 384-well clear bottom poly-D-lysine coated plate. The following day the screening compound-induced calcium activity was assayed on the FLIPR^Tetra. The drug plates were prepared in 384-well microplates using the EP3 and the MultiPROBE robotic liquid handling systems. Compounds were tested at concentrations ranging from 0.61 to 10,000 nM. Results are expressed as EC50 (nM) and efficacy values.

FPR1 = target: T2, FPR1 (Homo sapiens, UniProt P21462); assay: compound-induced calcium activity on FLIPR Tetra, CHO-Gα16 cells stably expressing FPR1; format: cell-based; settings: for FPR1 Ga16-CHO (% eff): efficacy value in parentheses; for FPR1 Ga16-CHO (% eff) / EC50: CHO-Gα16 cells stably expressing FPR1, calcium activity; for Ratio FPR2:FPR1 (EC50): ratio of EC50 for agonizing FPR2 to EC50 for agonizing FPR1 (selectivity for FPR1); for EC50: tested at 0.61 to 10,000 nM, read-out: FPR1 Ga16-CHO EC50
T2 construct: expressed in transfected cells
T2 sequence (P21462 1-350): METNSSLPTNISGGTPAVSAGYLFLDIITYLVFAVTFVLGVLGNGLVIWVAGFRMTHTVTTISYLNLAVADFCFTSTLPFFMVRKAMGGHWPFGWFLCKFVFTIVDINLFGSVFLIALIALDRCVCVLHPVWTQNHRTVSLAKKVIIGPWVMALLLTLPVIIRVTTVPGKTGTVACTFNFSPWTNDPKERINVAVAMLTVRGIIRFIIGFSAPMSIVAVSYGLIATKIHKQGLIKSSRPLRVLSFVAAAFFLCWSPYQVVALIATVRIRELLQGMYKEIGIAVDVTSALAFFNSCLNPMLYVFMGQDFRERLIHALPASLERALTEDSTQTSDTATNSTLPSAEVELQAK
Description: as §1

SMILES | FPR2 Ga16-CHO (% eff) (FPR2) | FPR1 Ga16-CHO (% eff) (FPR1) | Ratio FPR2:FPR1 (EC50) (FPR1) | EC50 (FPR2) | EC50 (FPR1)
CC(C)CC(C(=O)O)C(C)NC(=O)Nc1ccc(Br)cc1 (racemic) [Compound 102, 2-(1-(3-(4-bromophenyl)ureido)ethyl)-4-methylpentanoic acid] | 0.63 | 92% | 22 |  | 
CC(C)CC(C(=O)O)C(C)NC(=O)Nc1ccc(Br)cc1 (racemic) [Compound 103, 2-(1-(3-(4-bromophenyl)ureido)ethyl)-4-methylpentanoic acid] | 1.04 | 97% | 79 |  | 
CC(C)CC(C(=O)OC(C)(C)C)C(C)NC(=O)Nc1ccc(Br)cc1 (single isomer, unassigned) [Compound 100, tert-butyl 2-(1-(3-(4-bromophenyl)ureido)ethyl)-4-methylpentanoate] | 0.75 | 80% | 2.6 | 3760 nM | 1420 nM
CC(C)CC(C(=O)OC(C)(C)C)C(C)NC(=O)Nc1ccc(Br)cc1 (single isomer, unassigned) [Compound 101, tert-butyl 2-(1-(3-(4-bromophenyl)ureido)ethyl)-4-methylpentanoate] | 0.73 | 66% | 1 | ≥ 10000 nM | ≥ 10000 nM
CC(C)CC(C(=O)O)C(C)NC(=O)Nc1ccc(Br)cc1 (single isomer, unassigned) [Compound 106, 2-(1-(3-(4-bromophenyl)ureido)ethyl)-4-methylpentanoic acid] | 0.75 | 91% | 101 | 9940 nM | 98 nM

More lines, in order of falling EC50 (FPR2), values ahead:

FPR2 Ga16-CHO (% eff) (FPR2) | FPR1 Ga16-CHO (% eff) (FPR1) | Ratio FPR2:FPR1 (EC50) (FPR1) | EC50 (FPR2) | EC50 (FPR1) | SMILES
0.56 | 103% | 249 | 3240 nM | 13 nM | CC(C)CC(C(=O)O)C(C)NC(=O)Nc1ccc(Br)cc1 (single isomer, unassigned) [Compound 105, 2-(1-(3-(4-bromophenyl)ureido)ethyl)-4-methylpentanoic acid]
 |  |  | 1050 nM | 48 nM | CC(C)CC(C(=O)O)C(C)NC(=O)Nc1ccc(Br)cc1 (single isomer, unassigned) [Compound 102, 2-(1-(3-(4-bromophenyl)ureido)ethyl)-4-methylpentanoic acid]
0.89 | 94% | 17 | 855 nM | 51 nM | CC(C)CC(C(=O)O)C(C)NC(=O)Nc1ccc(Br)cc1 (single isomer, unassigned) [Compound 104, 2-(1-(3-(4-bromophenyl)ureido)ethyl)-4-methylpentanoic acid]
 |  |  | 41 nM | 0.52 nM | CC(C)CC(C(=O)O)C(C)NC(=O)Nc1ccc(Br)cc1 (single isomer, unassigned) [Compound 103, 2-(1-(3-(4-bromophenyl)ureido)ethyl)-4-methylpentanoic acid]
0.96 | 93% | 15 | 25 nM | 1.7 nM | CC(C)CC(C(=O)O)C(C)NC(=O)Nc1ccc(Br)cc1 (single isomer, unassigned) [Compound 107, 2-(1-(3-(4-bromophenyl)ureido)ethyl)-4-methylpentanoic acid]
